In US20250101032A1, “EXATECAN DERIVATIVES AND ANTIBODY-DRUG CONJUGATES THEREOF” (priority 2021, published 2025) one finds IC50 and solubility data, which are given here for 17 compounds.

Values after ≈ are worked out from the molar mass of the structure shown.

For one series, the system named is NCI-N87. As to the kind of experiment: In vitro cytotoxicity assay (CellTiter-Glo), NCI-N87. The series is classed as cell-based, Human. The note with it: Homo sapiens, NCI-N87, 144 h, read-out: Cytotoxicity IC50. The protocol:
(§1) Human tumor cell lines, SK-BR-3, NCI-H292, HT-29, MCF-7, NCI-N87, and FaDu were obtained from ATCC. NCI-H292, HT-29, MCF-7, and NCI-N87 cells were cultured in RPMI-1640 media (Gibco, Life Technologies) supplemented with 10% v/v heat inactivated FBS (Corning), FaDu cells were maintained in DMEM media (Gibco, Life Technologies) supplemented with 10% v/v heat inactivated FBS (Corning). SK-BR-3 cells were maintained in McCoys 5A medium (Gibco, Life Technologies) supplemented with 10% […] heat inactivated FBS (Corning) at 37° C. in a humidified incubator containing 5% CO2.
(§2) Lyophilized compounds were dissolved in 100% dry DMSO, aliquots frozen and stored at −80° C. Concentration and purity of compound stock solutions in DMSO were determined by RP-HPLC Agilent 1100 platform with 1200 DAD and SofTA ELSD detectors, and the Agilent 6150 MS system (UV/VIS, ELSD purity and MS compound identity confirmation). Shimadzu 3.0 mm×30 mm XR ODS 2.2 μm column was run at 50° C., 1.5 mL/min. Solvent A: 0.1% Formic acid in water, Solvent B: 0.08% Formic acid in methanol-Gradient: 5%-100% B in 3.0 min, 100% solvent B for 0.3 min. Concentration of compounds in 100% DMSO determined by ELS ranged from 1-6 mM.
(§3) Cells were plated in 96-well white flat-bottomed plates (Corning) at 2.0×10^3 cells per well in 100 μL culture medium. After incubation for 24 hours, test compounds were added at a range of concentrations as ten point serial dilution as duplicates or triplicates. Following further incubation for 6 days 37° C., 5% CO2, cell viability was assessed with the use of a CellTiter-Glo Luminescent Cell Viability Assay (Promega). Luminescence was measured using the GloMax instrument (Promega). […] For a subset of payloads, each treatment was independently repeated two to eight times, and IC50 values were averaged. […] Standard deviation (stdev) is shown as (N/A) for treatment performed once.
Background: In ATP-based viability assays light output follows the ATP content of the culture.

A further series concerns MCF7. Briefly: In vitro cytotoxicity assay (CellTiter-Glo), MCF7. The series is classed as cell-based, Human. As to conditions: Homo sapiens, MCF7, 144 h, read-out: Cytotoxicity IC50. The protocol: as §1, §2, §3
In a further series the test system is FaDu. Briefly: In vitro cytotoxicity assay (CellTiter-Glo), FaDu. The note with it: Homo sapiens, FaDu, 144 h, read-out: Cytotoxicity IC50. The format is cell-based, Human. As to the method: as §1, §2, §3
A further series in a line: physchem. The note with it: 25 °C, pH 7.4, aqueous buffer, kinetic from dmso stock. As to the method: In-vitro kinetic solubilities of the compounds in PBS pH 7.4 buffer at 25° C. were determined by diluting compounds from 100% dimethyl sulfoxide (DMSO) into PBS buffer and measuring absorbance at 490, 590 and 650 nm. Stock concentrations in 100% DMSO were provided at 1-6 mM in 100% DMSO. Kinetic solubilities were determined by diluting test compounds from 100% DMSO into PBS pH 7.4 buffer, as duplicate, 10 point 2-fold serial dilution starting at 100× dilution of stock DMS solution into PBS buffer in a clear, flat bottom polystyrene assay plates. Total assay volume was 200 microliters. Solutions were mixed by plate shaking, incubated for 30 m at 25° C., and absorbance was read at 490, 590 and 650 nm. […] in PBS buffer was used as a blank. For each test compound, average optical density (GD) at each concentration was determined by averaging the blank corrected sum of absorption at 490 nm, 590 nm and 650 nm, over duplicate measurements. Turbidity threshold optical density value was set as a sum of mean plus two standard deviations of the mean of absorbances at 490, 590 and 650 nm for 1% (v/v) DMSO in PBS pH 7.4 buffer. Highest soluble concentration (micromolar) corresponded to the highest concentration at which average optical density was below optical density value set for turbidity threshold (Table 4). Amiodarone and propranolol were used as low and high solubility controls respectively.

For another series, the system named is SKBR3. Briefly: In vitro cytotoxicity assay (CellTiter-Glo), SKBR3. The format is cell-based, Human. The note with it: Homo sapiens, SK-BR-3, 144 h, read-out: Cytotoxicity IC50. As to the method: as §1, §2, §3
A further series has as its system NCI-H292. As to the kind of experiment: In vitro cytotoxicity assay (CellTiter-Glo), NCI-H292. The format is cell-based, Human. The note with it: Homo sapiens, NCI-H292, 144 h, read-out: Cytotoxicity IC50. As to the method: as §1, §2, §3
Another series relates to HT29. As to the kind of experiment: In vitro cytotoxicity assay (CellTiter-Glo), HT29. The series is classed as cell-based, Human. As to conditions: Homo sapiens, HT-29, 144 h, read-out: Cytotoxicity IC50. The protocol: as §1, §2, §3

Consider `CC[C@@]1(O)C(=O)OCc2c1cc1n(c2=S)Cc2c-1nc1cc(F)c(C)c3c1c2[C@@H](N)CC3` [Compound 107], for which the IC50 in the series on NCI-N87 was 0.2 nM; in the series with MCF7, 0.2 nM; in the series on FaDu, 0.1 nM; in the series with SKBR3, 0.1 nM; in the series on NCI-H292 it was 0.6 nM; in the series with HT29, 0.4 nM. In addition, the concentration in solution in the series “physchem” (solubility at 30 min) came to 15 µM (≈ 6.77 µg/mL).

Regarding `CC[C@@]1(O)C(=O)OCc2c1cc1n(c2=O)Cc2c-1nc1cc(F)c(C)c3c1c2[C@@H](NCCNCCN)CC3` [Compound 164], the IC50 is 22.8 nM in the series with NCI-N87; 5.2 nM in the series with MCF7; 8.8 nM with FaDu; 10.8 nM with SKBR3; 30.3 nM in the series on NCI-H292; 32.7 nM in the series with HT29. This compound also came in with a solubility at 30 min in the series “physchem” of 10 µM (≈ 5.22 µg/mL).

Regarding `CC[C@@]1(O)C(=O)OCc2c1cc1n(c2=O)Cc2c-1nc1cc(F)c(C)c3c1c2[C@@H](N(C)CCO)CC3` [Compound 140], the half-inhibitory concentration (IC50) in the series on NCI-N87 came to 1.5 nM; with MCF7 it was 0.2 nM; in the series on FaDu, 0.3 nM; in the series with SKBR3, 0.8 nM; with NCI-H292 it was 3 nM; in the series with HT29, 1.2 nM. In “physchem”, the solubility at 30 min was 10 µM (≈ 4.94 µg/mL).

For the compound `CC[C@@]1(O)C(=O)OCc2c1cc1n(c2=O)Cc2c-1nc1cc(F)c(C)c3c1c2[C@@H](N(C=O)CCO)CC3` [Compound 163], the IC50 in the series with NCI-N87 worked out at 29.4 nM; with MCF7 it was 10.9 nM; in the series with FaDu, 7.8 nM; in the series with SKBR3 it was 9.8 nM; with NCI-H292, 22.3 nM; in the series on HT29, 65 nM. In the series “physchem”, this compound gave a solubility at 30 min of 24 µM (≈ 12.2 µg/mL).

Take `CC[C@@]1(O)C(=O)OCc2c1cc1n(c2=O)Cc2c-1nc1cc(F)c(C)c3c1c2[C@@H](NC(=O)c1cc(CO)[nH]n1)CC3` [Compound 168]: the IC50 in the series on NCI-N87 was 103 nM; with MCF7, 19.4 nM; in the series on FaDu, 9.9 nM; with SKBR3, 32.7 nM; in the series on NCI-H292, 77.9 nM; with HT29, 627 nM.

As to `CC[C@@]1(O)C(=O)OCc2c1cc1n(c2=O)Cc2c-1nc1cc(F)c(C)c3c1c2[C@@H](NC(=O)c1cc(O)[nH]n1)CC3` [Compound 166], the IC50 in the series on NCI-N87 is 410 nM; in the series with MCF7, 162 nM; with FaDu, 93.8 nM; in the series on SKBR3, 118 nM; with NCI-H292, 322 nM; in the series with HT29, 663 nM. This compound also had a solubility at 30 min in “physchem” of 22 µM (≈ 12 µg/mL).

In the case of `CC[C@@]1(O)C(=O)OCc2c1cc1n(c2=S)Cc2c-1nc1cc(F)c(C)c3c1c2[C@@H](NC(=O)CO)CC3` [Compound 106], the IC50 with NCI-N87 came to 0.9 nM; in the series with MCF7, 0.2 nM; in the series with SKBR3 it was 0.4 nM; in the series with NCI-H292, 0.4 nM; in the series with HT29, 1.1 nM.

For `CC[C@@]1(O)C(=O)OCc2c1cc1n(c2=O)Cc2c-1nc1cc(F)c(C)c3c1c2[C@@H](NC(=S)CO)CC3` [Compound 176], the IC50 in the series on NCI-N87 was 2.1 nM; with MCF7, 7.8 nM; in the series on FaDu, 0.9 nM; in the series with SKBR3, 0.7 nM; with NCI-H292 it was 4.5 nM; in the series on HT29, 4.3 nM.

In the case of `CC[C@@]1(O)C(=O)OCc2c1cc1n(c2=O)Cc2c-1nc1cc(F)c(C)c3c1c2[C@@H](NC(=O)CCC1OCCO1)CC3` [Compound 188], the IC50 in the series on NCI-N87 is 9 nM; in the series with MCF7 it was 4.9 nM; with FaDu it was 1.5 nM; with SKBR3, 3.4 nM; in the series on NCI-H292, 6.6 nM; in the series on HT29 it was 13 nM. In “physchem”, this compound came in with a solubility at 30 min of 6 µM (≈ 3.38 µg/mL).

In the case of `CC[C@@]1(O)C(=O)OCc2c1cc1n(c2=O)Cc2c-1nc1cc(F)c(C)c3c1c2[C@@H](NC(=O)C1(O)COC1)CC3` [Compound 159], the IC50 with NCI-N87 is 22.4 nM; in the series on MCF7, 9.8 nM; in the series on FaDu, 2 nM; with SKBR3, 5.8 nM; with NCI-H292, 21.6 nM; with HT29, 64.2 nM. This compound also came in with a solubility at 30 min in the series “physchem” of 27 µM (≈ 14.5 µg/mL).

Consider `CC[C@@]1(O)C(=O)OCc2c1cc1n(c2=O)Cc2c-1nc1cc(F)c(C)c3c1c2[C@@H](NC(=O)C1CC(O)C1)CC3` (stereo partly drawn) [Compound 58], for which the concentration for half-maximal inhibition (IC50) with NCI-N87 stood at 49.4 nM; in the series with MCF7, 32 nM; in the series on FaDu it was 6.3 nM; in the series on SKBR3, 12.1 nM; in the series on NCI-H292 it was 60.5 nM; with HT29, 177 nM.

In the case of `CC[C@@]1(O)C(=O)OCc2c1cc1n(c2=O)Cc2c-1nc1cc(F)c(C)c3c1c2[C@@H](NCCOCCO)CC3` [Compound 147], the IC50 was determined as 8.5 nM in the series with NCI-N87; 3.1 nM with MCF7; 3 nM in the series with FaDu; 2.7 nM in the series with SKBR3; 9.4 nM with NCI-H292; 7.1 nM with HT29. Also, the solubility at 30 min in “physchem” was 21 µM (≈ 11 µg/mL).

Consider `CC[C@@]1(O)C(=O)OCc2c1cc1n(c2=O)Cc2c-1nc1cc(F)c(C)c3c1c2[C@@H](NC(=O)c1coc(CO)n1)CC3` [Compound 167], for which the IC50 in the series on NCI-N87 came to 34 nM; in the series with MCF7 it was 8.9 nM; in the series on FaDu it was 3 nM; in the series on SKBR3, 3.5 nM; in the series with NCI-H292, 23 nM; in the series with HT29, 43.5 nM.

Turning to `CC[C@@]1(O)C(=O)OCc2c1cc1n(c2=O)Cc2c-1nc1cc(F)c(C)c3c1c2[C@@H](NC(=O)[C@H]1C[C@H]1CO)CC3` (single isomer, unassigned) [Compound 111-B], the IC50 was determined as 5.2 nM in the series on NCI-N87; 3.8 nM in the series with MCF7; 1.1 nM with FaDu; 2.1 nM with SKBR3; 4.5 nM in the series on NCI-H292; 6.3 nM in the series with HT29. This compound yielded a solubility at 30 min in “physchem” of 30 µM (≈ 16 µg/mL).

Regarding `CC[C@@]1(O)C(=O)OCc2c1cc1n(c2=O)Cc2c-1nc1cc(F)c(C)c3c1c2[C@@H](NC(=O)C#CCO)CC3` [Compound 83], the IC50 with NCI-N87 came to 159 nM; in the series with MCF7, 42.2 nM; in the series on FaDu it was 16.5 nM; with SKBR3, 25.6 nM; in the series with NCI-H292, 121 nM; in the series on HT29, 255 nM.

Take `CC[C@@]1(O)C(=O)OCc2c1cc1n(c2=S)Cc2c-1nc1cc(F)c(C)c3c1c2[C@@H](NC(=S)[C@H]1C[C@@H]1CO)CC3` [Compound 175-B]: the IC50 was determined as 1.5 nM in the series on NCI-N87; 0.6 nM in the series with MCF7; 0.3 nM with FaDu; 0.5 nM in the series on SKBR3; 1.5 nM with NCI-H292; 1.6 nM with HT29.

`CC(C)NCC(O)COc1cccc2ccccc12` (stereo not drawn) [Propranolol, propranolol, reference compound] displayed a solubility at 30 min in “physchem” of 100 µM (≈ 25.9 µg/mL).

As usually defined, the IC50 is the concentration needed to halve the response being measured. The solubility is how much of the substance goes into solution per volume.
